Entries after “also recorded” stand apart in the source; their conditions may differ.
Key:
Raw 264.7 cells = test: Determination of cell vitality by MTT method; format: cell-based, mouse; conditions: 1.37 to 12.37 μg/ml, 2 h medicine, then LPS 30 μg/ml 24 h, FIG. 1
Experimental: (§1) Medicine was first dissolved in a small amount of DMSO, and then diluted to a certain concentration with DMEM, so that final concentration of DMSO was less than 1%.
(§2) Raw 264.7 mouse macrophages were incubated in DMEM medium containing 10% heat-inactivated fetal bovine serum (FBS), 10 U/mL penicillin sodium and 100 μg/ml streptomycin, and incubated in 37° C., 5% CO2 incubator.
Cell vitality was determined by MTT method. Cell suspension liquid was inoculated into a 96-well plate (1*104 holes/pore) to incubate for 24 hours and then synchronize for 24 hours. The cells were treated with different concentration of medicine for 2 hours, and then stimulated by LPS (30 μg/ml) for 24 hours. Original medium was abandoned, and MTT (0.5 mg/ml) was added into each hole for 4 hours. The medium was then abandoned and DMSO ([…]) was added into each hole. Absorbance was measured at 490 nm after shaking for 10 min.

NO = test: Determination of NO concentration in LPS-stimulated Raw 264.7 cells (mouse NO kit); format: cell-based; conditions: 6.88±12.38 μg/ml (6.88 to 12.38 μg/mL), LPS 30 μg/ml 24 h, dose-dependent
Experimental: as §1, §2
(§3) Raw 264.7 cells were inoculated on a 96-well plate for 24 hours, then synchronized for 24 hours. The cells were treated with different concentration of medicine for 2 hours, and then stimulated with LPS (30 μg/ml) for 24 hours. Lastly, supernatant was collected and centrifuged for 5 minutes at 10,000 rpm. The supernatant was separated and stored at −80° C. for reserve. The concentration of NO was determined by mouse NO kit.

TNF-α = test: Measurement of inflammatory factor TNF-α in LPS-stimulated Raw 264.7 cells (ELISA kit); format: cell-based, mouse; conditions: 6.88±12.38 μg/ml (6.88 to 12.38 μg/mL), LPS 30 μg/ml 24 h, p<0.05, dose-dependent, FIG. 3
Experimental: (§4) Mouse IL-1-beta ELISA kit, batch number: 2014/06 (96T), Mouse IL-6 ELISA kit, batch number: 2014/06 (96T), Mouse tumor necrosis factor-alpha (TNF-α) ELISA kit, batch number: 2014/06 (96T), Mouse NO ELISA Kit Batch number: 2014/10 (96T), mouse hydroxyl radical (OH) ELISA detection kit, batch number: 2014/10 (96T).
as §3
(§5) Sample prepared in at 1.5 was used for subsequent inflammatory factor determination. The amount of TNF-α, IL-1β, IL-6 produced by cells was measured by mouse TNF-α, IL-1β, and IL-6 kit.

IL-1β = test: Measurement of inflammatory factor IL-1β in LPS-stimulated Raw 264.7 cells (ELISA kit); format: cell-based, mouse; conditions: at various concentrations; LPS 30 μg/ml 24 h; p>0.05; FIG. 4
Experimental: as §4, §3, §5

IL-6 = test: Measurement of inflammatory factor IL-6 in LPS-stimulated Raw 264.7 cells (ELISA kit); format: cell-based, mouse; conditions: at various concentrations; LPS 30 μg/ml 24 h; p>0.05; FIG. 5
Experimental: as §4, §3, §5

hydroxyl radical (OH) = test: Determination of OH concentration in LPS-stimulated Raw 264.7 cells (OH kit); format: cell-based, mouse; conditions: 4.13-12.38 μg/ml, LPS 30 μg/ml 24 h, dose-dependent
Experimental: as §4, §3
Sample prepared at 1.5 was used for OH factor determination. The concentration was determined by OH kit.

## O=C(CCO)Oc1cc(O)c(OC2OC(CO)C(O)C(O)C2O)c(O)c1 (stereo not drawn) [MM-125]
Raw 264.7 cells
  effect on vitality of Raw 264.7 cells: no significant effect
NO; FIG. 2
  inhibition of the increase of NO concentration induced by LPS: significantly inhibit; also recorded: significant inhibitory effects
NO; FIG. 2, listed as phenylpropanoid compound
  inhibition of the increase of NO concentration induced by LPS: significant effect on inhibiting
TNF-α
  inhibition of production of TNF-α in Raw 264.7 cells: significantly inhibit; also recorded: certain level of inhibiting effects
TNF-α; listed as phenylpropanoid compound
  inhibition of production of TNF-α in Raw 264.7 cells: significantly inhibit
IL-1β
  inhibition of production of IL-1β in Raw 264.7 cells: could not inhibit; also recorded: no obvious inhibitory effect
IL-6
  inhibition of production of IL-6 in Raw 264.7 cells: could not inhibit; also recorded: no obvious inhibitory effect
Hydroxyl radical (OH); FIG. 6
  inhibition of the increase of OH concentration induced by LPS: significantly inhibit; also recorded: significant inhibitory effects
Hydroxyl radical (OH); FIG. 6, listed as phenylpropanoid compound
  inhibition of the increase of OH concentration induced by LPS: significant effect on inhibiting

Source: patent US10329316B2, “Phenylpropanoid compound and preparation method and use thereof” (QIANJIN PHARMACEUTICAL CO., LTD., priority 2016, dated 2019)
